Measurements published in the NIST ThermoML archive (doi:10.1021/acs.jced.7b00227).

How the values were obtained:
[1] = for Normal melting temperature: DTA
[2] = Molar enthalpy of transition or fusion; settings: Crystal; DSC

O=Cc1ccccc1O [2-hydroxybenzaldehyde]
[1]
Settings | vapor or sublimation pressure [kPa]
264.55 K, Crystal, Closed cell (Static) method | 0.00232
266.52 K, Crystal, Closed cell (Static) method | 0.00319
266.54 K, Metastable liquid, Closed cell (Static) method | 0.00505
268.49 K, Crystal, Closed cell (Static) method | 0.00453
268.5 K, Metastable liquid, Closed cell (Static) method | 0.00606
270.45 K, Crystal, Closed cell (Static) method | 0.00599
270.45 K, Metastable liquid, Closed cell (Static) method | 0.00727
272.44 K, Metastable liquid, Closed cell (Static) method | 0.00884
274.4 K, Closed cell (Static) method, Liquid | 0.01038
276.37 K, Closed cell (Static) method, Liquid | 0.01235
278.29 K, Closed cell (Static) method, Liquid | 0.01469
280.27 K, Closed cell (Static) method, Liquid | 0.01734
282.24 K, Closed cell (Static) method, Liquid | 0.02049
284.23 K, Closed cell (Static) method, Liquid | 0.02411
286.21 K, Closed cell (Static) method, Liquid | 0.02842
288.16 K, Closed cell (Static) method, Liquid | 0.03343
290.13 K, Closed cell (Static) method, Liquid | 0.03878
292.14 K, Closed cell (Static) method, Liquid | 0.0453
294.09 K, Closed cell (Static) method, Liquid | 0.05232
296 K, Closed cell (Static) method, Liquid | 0.06145
298.06 K, Closed cell (Static) method, Liquid | 0.0702
300.04 K, Closed cell (Static) method, Liquid | 0.08175
302.02 K, Closed cell (Static) method, Liquid | 0.09355
304.24 K, Closed cell (Static) method, Liquid | 0.1075
305.97 K, Closed cell (Static) method, Liquid | 0.1228
307.92 K, Closed cell (Static) method, Liquid | 0.1409
309.88 K, Closed cell (Static) method, Liquid | 0.1603
311.9 K, Closed cell (Static) method, Liquid | 0.1832
313.81 K, Closed cell (Static) method, Liquid | 0.2071
315.78 K, Closed cell (Static) method, Liquid | 0.2358
317.77 K, Closed cell (Static) method, Liquid | 0.2661
319.78 K, Closed cell (Static) method, Liquid | 0.3014
321.96 K, Closed cell (Static) method, Liquid | 0.3441
323.95 K, Closed cell (Static) method, Liquid | 0.3875
325.91 K, Closed cell (Static) method, Liquid | 0.4352
327.88 K, Closed cell (Static) method, Liquid | 0.4884
329.84 K, Closed cell (Static) method, Liquid | 0.5465
331.84 K, Closed cell (Static) method, Liquid | 0.611
333.81 K, Closed cell (Static) method, Liquid | 0.682
335.78 K, Closed cell (Static) method, Liquid | 0.7604
337.76 K, Closed cell (Static) method, Liquid | 0.846
339.74 K, Closed cell (Static) method, Liquid | 0.9402
341.67 K, Closed cell (Static) method, Liquid | 1.042

Settings | Normal melting temperature [°C]
[1], Crystal | -0.8

Settings | Molar enthalpy of transition or fusion [kJ/mol]
[2] | 13.3

O=Cc1ccc(O)cc1 [4-hydroxybenzaldehyde]
[1]
Settings | vapor or sublimation pressure [kPa]
319.14 K, Crystal, Calculated from knudsen effusion weight loss | 7.6e-05
321.31 K, Crystal, Calculated from knudsen effusion weight loss | 0.000101
323.2 K, Crystal, Calculated from knudsen effusion weight loss | 0.000124
325.16 K, Crystal, Calculated from knudsen effusion weight loss | 0.000152
327.35 K, Crystal, Calculated from knudsen effusion weight loss | 0.000196
329.21 K, Crystal, Calculated from knudsen effusion weight loss | 0.00024
331.15 K, Crystal, Calculated from knudsen effusion weight loss | 0.000305
333.36 K, Crystal, Calculated from knudsen effusion weight loss | 0.000383
334.88 K, Crystal, Closed cell (Static) method | 0.00047
335.2 K, Crystal, Calculated from knudsen effusion weight loss | 0.000476
336.84 K, Crystal, Closed cell (Static) method | 0.00058
337.14 K, Crystal, Calculated from knudsen effusion weight loss | 0.000583
338.82 K, Crystal, Closed cell (Static) method | 0.00072
339.28 K, Crystal, Calculated from knudsen effusion weight loss | 0.000737
340.78 K, Crystal, Closed cell (Static) method | 0.00089
341.2 K, Crystal, Calculated from knudsen effusion weight loss | 0.00091
342.79 K, Crystal, Closed cell (Static) method | 0.00109
344.73 K, Crystal, Closed cell (Static) method | 0.00133
346.72 K, Crystal, Closed cell (Static) method | 0.00165
348.7 K, Crystal, Closed cell (Static) method | 0.00199
350.66 K, Crystal, Closed cell (Static) method | 0.00241
352.65 K, Crystal, Closed cell (Static) method | 0.00296
354.62 K, Crystal, Closed cell (Static) method | 0.00358
356.58 K, Crystal, Closed cell (Static) method | 0.00433
358.56 K, Crystal, Closed cell (Static) method | 0.00525
360.53 K, Crystal, Closed cell (Static) method | 0.0064
362.52 K, Crystal, Closed cell (Static) method | 0.00769
364.51 K, Crystal, Closed cell (Static) method | 0.00915
366.46 K, Crystal, Closed cell (Static) method | 0.01071
368.43 K, Crystal, Closed cell (Static) method | 0.01274
370.43 K, Crystal, Closed cell (Static) method | 0.01545
372.39 K, Crystal, Closed cell (Static) method | 0.01842
374.32 K, Crystal, Closed cell (Static) method | 0.02206
376.26 K, Crystal, Closed cell (Static) method | 0.02606
378.18 K, Metastable liquid, Closed cell (Static) method | 0.03765
378.32 K, Crystal, Closed cell (Static) method | 0.03067
380.28 K, Metastable liquid, Closed cell (Static) method | 0.04331
380.29 K, Crystal, Closed cell (Static) method | 0.03625
382.26 K, Metastable liquid, Closed cell (Static) method | 0.04915
384.18 K, Metastable liquid, Closed cell (Static) method | 0.05575
385.95 K, Metastable liquid, Closed cell (Static) method | 0.06255
388.15 K, Metastable liquid, Closed cell (Static) method | 0.07155
390.14 K, Metastable liquid, Closed cell (Static) method | 0.08085
392.11 K, Closed cell (Static) method, Liquid | 0.09145
393.98 K, Closed cell (Static) method, Liquid | 0.1013
396.02 K, Closed cell (Static) method, Liquid | 0.1156
398.08 K, Closed cell (Static) method, Liquid | 0.132
399.97 K, Closed cell (Static) method, Liquid | 0.1466
402.15 K, Closed cell (Static) method, Liquid | 0.1659
403.9 K, Closed cell (Static) method, Liquid | 0.184
406.15 K, Closed cell (Static) method, Liquid | 0.2077
407.83 K, Closed cell (Static) method, Liquid | 0.2288
409.81 K, Closed cell (Static) method, Liquid | 0.2537
411.77 K, Closed cell (Static) method, Liquid | 0.281
413.71 K, Closed cell (Static) method, Liquid | 0.315
415.68 K, Closed cell (Static) method, Liquid | 0.3477
417.65 K, Closed cell (Static) method, Liquid | 0.3831
419.62 K, Closed cell (Static) method, Liquid | 0.4264
421.57 K, Closed cell (Static) method, Liquid | 0.4738
423.73 K, Closed cell (Static) method, Liquid | 0.5285
425.48 K, Closed cell (Static) method, Liquid | 0.5776
427.46 K, Closed cell (Static) method, Liquid | 0.6379
429.41 K, Closed cell (Static) method, Liquid | 0.7018

Settings | Normal melting temperature [°C]
[1], Crystal | 117.1

Settings | Molar enthalpy of transition or fusion [kJ/mol]
[2] | 21.6
